In article PMC8330742, “New benzothieno[2,3-c]pyridines as non-steroidal CYP17 inhibitors: design, synthesis, anticancer screening, apoptosis induction, and in silico ADME profile studies” (Journal of Enzyme Inhibition and Medicinal Chemistry, 2021):

Experiments:
[1] = tested on: CCRF-CEM; test: NCI-60 SRB screen; assay type: cell-based; conditions: Homo sapiens, single dose 10^−5 M, read-out: Growth inhibition (%)
[2] = tested on: HL-60(TB); test: NCI-60 SRB screen; assay type: cell-based, human; conditions: Homo sapiens; HL-60 (TB); single dose 10^−5 M; read-out: Growth inhibition (%)
[3] = tested on: K-562; test: NCI-60 SRB screen; assay type: cell-based, human; conditions: Homo sapiens, K562; K-562; single dose 10^−5 M; read-out: Growth inhibition (%)
[4] = tested on: MOLT-4; test: NCI-60 SRB screen; assay type: cell-based; conditions: Homo sapiens; MOLT-4; single dose 10^−5 M; read-out: Growth inhibition (%)
[5] = tested on: SR; test: NCI-60 SRB screen; assay type: cell-based; conditions: Homo sapiens, single dose 10^−5 M, read-out: Growth inhibition (%)
[6] = tested on: A549/ATCC; test: NCI-60 SRB screen; assay type: cell-based, human; conditions: Homo sapiens, single dose 10^−5 M, read-out: Growth inhibition (%)
[7] = tested on: EKVX; test: NCI-60 SRB screen; assay type: cell-based, human; conditions: Homo sapiens, single dose 10^−5 M, read-out: Growth inhibition (%)
[8] = tested on: HOP-62; test: NCI-60 SRB screen; assay type: cell-based, human; conditions: Homo sapiens; HOP-62; single dose 10^−5 M; read-out: Growth inhibition (%)
[9] = tested on: HOP-92; test: NCI-60 SRB screen; assay type: cell-based, human; conditions: Homo sapiens; HOP-92; single dose 10^−5 M; read-out: Growth inhibition (%)
[10] = tested on: NCI-H226; test: NCI-60 SRB screen; assay type: cell-based, human; conditions: Homo sapiens; NCI-H226; single dose 10^−5 M; read-out: Growth inhibition (%)
[11] = tested on: NCI-H23; test: NCI-60 SRB screen; assay type: cell-based, human; conditions: Homo sapiens; NCI-H23; single dose 10^−5 M; read-out: Growth inhibition (%)
[12] = tested on: NCI-H322M; test: NCI-60 SRB screen; assay type: cell-based, human; conditions: Homo sapiens, single dose 10^−5 M, read-out: Growth inhibition (%)
[13] = tested on: NCI-H460; test: NCI-60 SRB screen; assay type: cell-based, human; conditions: Homo sapiens; NCI-H460; single dose 10^−5 M; read-out: Growth inhibition (%)
[14] = tested on: NCI-H522; test: NCI-60 SRB screen; assay type: cell-based, human; conditions: Homo sapiens; NCI-H522; single dose 10^−5 M; read-out: Growth inhibition (%)
[15] = tested on: COLO 205; test: NCI-60 SRB screen; assay type: cell-based, human; conditions: Homo sapiens; COLO 205; single dose 10^−5 M; read-out: Growth inhibition (%)
[16] = tested on: HCT-116; test: NCI-60 SRB screen; assay type: cell-based, human; conditions: Homo sapiens; HCT-116; single dose 10^−5 M; read-out: Growth inhibition (%)
[17] = tested on: HCT-15; test: NCI-60 SRB screen; assay type: cell-based, human; conditions: Homo sapiens; HCT-15; single dose 10^−5 M; read-out: Growth inhibition (%)
[18] = tested on: HT-29; test: NCI-60 SRB screen; assay type: cell-based; conditions: Homo sapiens; HT-29; single dose 10^−5 M; read-out: Growth inhibition (%)
[19] = tested on: KM12; test: NCI-60 SRB screen; assay type: cell-based, human; conditions: Homo sapiens; KM12; single dose 10^−5 M; read-out: Growth inhibition (%)
[20] = tested on: SW-620; test: NCI-60 SRB screen; assay type: cell-based; conditions: Homo sapiens; SW-620; single dose 10^−5 M; read-out: Growth inhibition (%)
[21] = tested on: SF-268; test: NCI-60 SRB screen; assay type: cell-based, human; conditions: Homo sapiens; SF-268; single dose 10^−5 M; read-out: Growth inhibition (%)
[22] = tested on: SF-295; test: NCI-60 SRB screen; assay type: cell-based, human; conditions: Homo sapiens; SF-295; single dose 10^−5 M; read-out: Growth inhibition (%)
[23] = tested on: MALME-3M; test: NCI-60 SRB screen; assay type: cell-based, human; conditions: Homo sapiens, single dose 10^−5 M, read-out: Growth inhibition (%)
[24] = tested on: M14; test: NCI-60 SRB screen; assay type: cell-based, human; conditions: Homo sapiens; M14; single dose 10^−5 M; read-out: Growth inhibition (%)
[25] = tested on: MDA-MB-435; test: NCI-60 SRB screen; assay type: cell-based; conditions: Homo sapiens, MDA-MB-435, read-out: Growth inhibition (%)
[26] = tested on: SK-MEL-2; test: NCI-60 SRB screen; assay type: cell-based, human; conditions: Homo sapiens; SK-MEL-2; single dose 10^−5 M; read-out: Growth inhibition (%)
[27] = tested on: SK-MEL-28; test: NCI-60 SRB screen; assay type: cell-based; conditions: Homo sapiens; SK-MEL-28; single dose 10^−5 M; read-out: Growth inhibition (%)
[28] = tested on: SK-MEL-5; test: NCI-60 SRB screen; assay type: cell-based, human; conditions: Homo sapiens; SK-MEL-5; single dose 10^−5 M; read-out: Growth inhibition (%)
[29] = tested on: UACC-257; test: NCI-60 SRB screen; assay type: cell-based, human; conditions: Homo sapiens, UACC-257; UACC-275 (so in the source); single dose 10^−5 M; read-out: Growth inhibition (%)
[30] = tested on: UACC-62; test: NCI-60 SRB screen; assay type: cell-based, human; conditions: Homo sapiens; UACC-62; single dose 10^−5 M; read-out: Growth inhibition (%)
[31] = tested on: IGROV1; test: NCI-60 SRB screen; assay type: cell-based, human; conditions: Homo sapiens, IGROV-1; IGROV1; single dose 10^−5 M; read-out: Growth inhibition (%)
[32] = tested on: OVCAR-3; test: NCI-60 SRB screen; assay type: cell-based, human; conditions: Homo sapiens; OVCAR-3; single dose 10^−5 M; read-out: Growth inhibition (%)
[33] = tested on: OVCAR-4; test: NCI-60 SRB screen; assay type: cell-based, human; conditions: Homo sapiens; OVCAR-4; single dose 10^−5 M; read-out: Growth inhibition (%)
[34] = tested on: OVCAR-8; test: NCI-60 SRB screen; assay type: cell-based, human; conditions: Homo sapiens; OVCAR-8; single dose 10^−5 M; read-out: Growth inhibition (%)
[35] = tested on: NCI/ADR-RES; test: NCI-60 SRB screen; assay type: cell-based, human; conditions: Homo sapiens, single dose 10^−5 M, read-out: Growth inhibition (%)
[36] = tested on: SK-OV-3; test: NCI-60 SRB screen; assay type: cell-based, human; conditions: Homo sapiens; SK-OV-3; single dose 10^−5 M; read-out: Growth inhibition (%)
[37] = tested on: 786-0; test: NCI-60 SRB screen; assay type: cell-based; conditions: Homo sapiens; 786-0; single dose 10^−5 M; read-out: Growth inhibition (%)
[38] = tested on: ACHN; test: NCI-60 SRB screen; assay type: cell-based; conditions: Homo sapiens, single dose 10^−5 M, read-out: Growth inhibition (%)
[39] = tested on: CAKI-1; test: NCI-60 SRB screen; assay type: cell-based, human; conditions: Homo sapiens; CAKI-1; single dose 10^−5 M; read-out: Growth inhibition (%)
[40] = tested on: RXF 393; test: NCI-60 SRB screen; assay type: cell-based, human; conditions: Homo sapiens; RXF 393; single dose 10^−5 M; read-out: Growth inhibition (%)
[41] = tested on: SN12C; test: NCI-60 SRB screen; assay type: cell-based, human; conditions: Homo sapiens, SN12C; SN 12 C; single dose 10^−5 M; read-out: Growth inhibition (%)
[42] = tested on: TK-10; test: NCI-60 SRB screen; assay type: cell-based, human; conditions: Homo sapiens; TK-10; single dose 10^−5 M; read-out: Growth inhibition (%)
[43] = tested on: UO-31; test: NCI-60 SRB screen; assay type: cell-based, human; conditions: Homo sapiens; UO-31; single dose 10^−5 M; read-out: Growth inhibition (%)
[44] = tested on: panel of 60 cancer cell lines; test: NCI-60 SRB screen, mean or range over the panel; assay type: cell-based, human; conditions: Homo sapiens; mean over the cell lines; single dose 10^−5 M; read-out: Mean growth inhibition (%)

**Q.** Which inhibition at 10 µM [1] does the source give for `O=[N+]([O-])c1cccc(C2NC(Cl)=C(Cl)c3c2sc2c(F)cccc32)c1` (centres unmarked) [Compound 7a, 3,4-Dichloro-8-fluoro-1-(3-nitrophenyl)-1,2-dihydro[1]benzothieno[2,3-c] pyridine] here?
**A.** 2.12%

**Q.** And the inhibition at 10 µM [2]?
**A.** -8.33%

**Q.** And the inhibition at 10 µM [3]?
**A.** 18%

**Q.** What about the inhibition at 10 µM [4] of the same compound?
**A.** 15.2%

**Q.** And the inhibition at 10 µM [5]?
**A.** 16.2%

**Q.** And the inhibition at 10 µM [6]?
**A.** 2.3%

**Q.** What about the inhibition at 10 µM [7] of the same compound?
**A.** 7.1%

**Q.** What about the inhibition at 10 µM [8] of the same compound?
**A.** 15.5%

**Q.** What about the inhibition at 10 µM [9] of the same compound?
**A.** 14.7%

**Q.** What about the inhibition at 10 µM [10] of the same compound?
**A.** 14.2%

**Q.** What about the inhibition at 10 µM [11] of the same compound?
**A.** 8.55%

**Q.** What about the inhibition at 10 µM [12] of the same compound?
**A.** -2.48%

**Q.** And the inhibition at 10 µM [13]?
**A.** 1.24%

**Q.** What about the inhibition at 10 µM [14] of the same compound?
**A.** 12.7%

**Q.** What about the inhibition at 10 µM [15] of the same compound?
**A.** -14.6%

**Q.** And the inhibition at 10 µM [16]?
**A.** 13.4%

**Q.** And the inhibition at 10 µM [17]?
**A.** -1.63%

**Q.** And the inhibition at 10 µM [18]?
**A.** -1.97%

**Q.** What about the inhibition at 10 µM [19] of the same compound?
**A.** 3.25%

**Q.** And the inhibition at 10 µM [20]?
**A.** 4.18%

**Q.** What about the inhibition at 10 µM [21] of the same compound?
**A.** 5.16%

**Q.** What about the inhibition at 10 µM [22] of the same compound?
**A.** -2.06%

**Q.** What about the inhibition at 10 µM [23] of the same compound?
**A.** -2.96%

**Q.** And the inhibition at 10 µM [24]?
**A.** 4.95%

**Q.** What about the inhibition at 10 µM [25] of the same compound?
**A.** -9.15%

**Q.** And the inhibition at 10 µM [26]?
**A.** -5.95%

**Q.** What about the inhibition at 10 µM [27] of the same compound?
**A.** -11.4%

**Q.** What about the inhibition at 10 µM [28] of the same compound?
**A.** 1.94%

**Q.** What about the inhibition at 10 µM [29] of the same compound?
**A.** -7.18%

**Q.** What about the inhibition at 10 µM [30] of the same compound?
**A.** 7.18%

**Q.** And the inhibition at 10 µM [31]?
**A.** 10.7%

**Q.** What about the inhibition at 10 µM [32] of the same compound?
**A.** -3.96%

**Q.** What about the inhibition at 10 µM [33] of the same compound?
**A.** 3.16%

**Q.** What about the inhibition at 10 µM [34] of the same compound?
**A.** 1.9%

**Q.** And the inhibition at 10 µM [35]?
**A.** -2.76%

**Q.** And the inhibition at 10 µM [36]?
**A.** 5.95%

**Q.** What about the inhibition at 10 µM [37] of the same compound?
**A.** -7.16%

**Q.** And the inhibition at 10 µM [38]?
**A.** 6.96%

**Q.** And the inhibition at 10 µM [39]?
**A.** 18.8%

**Q.** And the inhibition at 10 µM [40]?
**A.** 7.81%

**Q.** And the inhibition at 10 µM [41]?
**A.** 2.54%

**Q.** What about the inhibition at 10 µM [42] of the same compound?
**A.** -37.2%

**Q.** And the inhibition at 10 µM [43]?
**A.** 30.2%

**Q.** What about the inhibition at 10 µM [44] of the same compound?
**A.** 3.15%
